Source: patent publication US11912682B2, “Isoindolinone compounds” (Monte Rosa Therapeutics, Inc., priority 2021, dated 2024)
Like-named read-outs stand apart in the source and are kept apart here.

Columns and labels:
GSPT1 = GSPT1 (Homo sapiens (Human), UniProt P15170+Q96SW2); test: immunofluorescence assay for GSPT1 degradation in CAL-51 cells (Example 4); assay type: cell-based
Summary of the method: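 CAL-51 cells on fibronectin-coated plates were treated 6 h with serial dilutions (30 μM to 0.1 nM), then fixed and immunostained for GSPT1 with DAPI and phalloidin counterstains. Per-cell mean GSPT1 intensity from high-content imaging, normalized to controls; DC50 by non-linear regression.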

[1] = target: Full length wild-type cereblon CRBN (Homo sapiens (Human), UniProt Q96SW2); test: fluorescence polarization (FP) assay, cereblon binding
Full length wild-type cereblon CRBN, sequence (Q96SW2 whole entry): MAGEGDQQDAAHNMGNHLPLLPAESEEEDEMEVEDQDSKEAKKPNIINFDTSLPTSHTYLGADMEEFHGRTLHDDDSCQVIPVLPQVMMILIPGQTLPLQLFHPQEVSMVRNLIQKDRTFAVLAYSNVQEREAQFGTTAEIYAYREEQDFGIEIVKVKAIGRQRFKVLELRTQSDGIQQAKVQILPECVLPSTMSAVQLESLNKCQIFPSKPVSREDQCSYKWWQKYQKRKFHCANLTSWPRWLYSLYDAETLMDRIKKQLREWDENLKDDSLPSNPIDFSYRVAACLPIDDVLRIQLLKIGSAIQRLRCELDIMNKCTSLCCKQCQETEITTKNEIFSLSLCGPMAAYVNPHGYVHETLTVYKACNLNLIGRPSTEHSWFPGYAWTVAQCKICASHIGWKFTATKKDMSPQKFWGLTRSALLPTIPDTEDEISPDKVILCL
Summary of the method: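 Full-length wild-type CRBN (80.0 nM as dispensed) preincubated 30 min at room temperature with compound in HEPES pH 8.0, NaCl, TCEP, 0.05% Tween 20.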

[2] = 6 hours, read-out: Activity for GSPT1 degradation, Code (DC50)
[3] = GSPT1 degradation, read-out: DC50 value

GSPT1, sequence (P15170 whole entry): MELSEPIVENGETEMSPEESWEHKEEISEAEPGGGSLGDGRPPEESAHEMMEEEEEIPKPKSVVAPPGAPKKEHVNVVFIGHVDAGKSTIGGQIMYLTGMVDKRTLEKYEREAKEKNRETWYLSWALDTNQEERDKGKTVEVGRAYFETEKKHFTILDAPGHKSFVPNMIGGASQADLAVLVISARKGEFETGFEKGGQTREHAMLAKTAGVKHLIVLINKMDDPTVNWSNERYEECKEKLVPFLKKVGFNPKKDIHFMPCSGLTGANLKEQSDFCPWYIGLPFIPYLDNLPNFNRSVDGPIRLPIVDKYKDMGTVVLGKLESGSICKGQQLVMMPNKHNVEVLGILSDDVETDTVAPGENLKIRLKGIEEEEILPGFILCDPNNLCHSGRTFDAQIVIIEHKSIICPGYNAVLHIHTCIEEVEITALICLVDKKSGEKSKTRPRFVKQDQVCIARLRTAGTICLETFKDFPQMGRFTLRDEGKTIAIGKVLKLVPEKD
GSPT1, sequence (Q96SW2 whole entry): as the sequence (Q96SW2 whole entry) above
GSPT1, sequence (Q16531 2-1140 partner): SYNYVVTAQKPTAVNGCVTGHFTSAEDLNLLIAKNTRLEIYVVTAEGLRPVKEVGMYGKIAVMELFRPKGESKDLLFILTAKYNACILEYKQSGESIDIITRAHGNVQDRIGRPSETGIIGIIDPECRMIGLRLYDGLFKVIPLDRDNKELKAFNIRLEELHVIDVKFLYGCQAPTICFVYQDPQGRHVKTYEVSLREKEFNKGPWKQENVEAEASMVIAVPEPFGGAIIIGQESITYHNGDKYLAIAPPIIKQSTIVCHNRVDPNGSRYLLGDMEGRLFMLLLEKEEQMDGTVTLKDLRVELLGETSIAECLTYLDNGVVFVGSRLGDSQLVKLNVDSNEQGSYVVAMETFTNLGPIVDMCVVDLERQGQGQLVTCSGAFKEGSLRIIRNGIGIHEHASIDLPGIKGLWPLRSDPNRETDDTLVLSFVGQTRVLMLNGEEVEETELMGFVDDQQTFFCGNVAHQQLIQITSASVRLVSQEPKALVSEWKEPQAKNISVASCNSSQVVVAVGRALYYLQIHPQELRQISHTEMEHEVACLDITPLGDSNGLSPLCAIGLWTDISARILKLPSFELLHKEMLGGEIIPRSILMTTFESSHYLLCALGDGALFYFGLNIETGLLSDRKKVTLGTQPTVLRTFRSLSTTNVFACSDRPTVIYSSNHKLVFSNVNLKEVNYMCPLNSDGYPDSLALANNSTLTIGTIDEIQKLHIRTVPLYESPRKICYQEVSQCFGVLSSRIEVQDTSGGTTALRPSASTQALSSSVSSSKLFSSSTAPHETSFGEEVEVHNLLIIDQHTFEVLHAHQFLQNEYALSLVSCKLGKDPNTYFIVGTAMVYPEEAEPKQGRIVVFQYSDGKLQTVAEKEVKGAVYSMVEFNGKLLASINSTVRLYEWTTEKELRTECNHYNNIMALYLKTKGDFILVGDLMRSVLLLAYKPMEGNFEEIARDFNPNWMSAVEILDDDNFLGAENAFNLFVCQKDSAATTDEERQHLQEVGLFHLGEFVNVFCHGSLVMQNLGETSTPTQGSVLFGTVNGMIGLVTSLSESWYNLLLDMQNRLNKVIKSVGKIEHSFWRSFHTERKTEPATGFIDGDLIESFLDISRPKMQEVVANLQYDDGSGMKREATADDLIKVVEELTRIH

Structure (SMILES) | DC50 (GSPT1; [2]) | IC50 ([1]; read-out: rFP IC50) | IC50 ([1]; read-out: IC50 value) | DC50 (GSPT1; [3])
O=C1CCC(N2Cc3ccc(COC(=O)N4CCC(Oc5ccccc5)C4)cc3C2=O)C(=O)N1 (stereo not drawn) [Compound 30] | > 300 nM | < 500 nM | – | –
Cc1ccc(NC(=O)OCc2ccc3c(c2)C(=O)N(C2CCC(=O)NC2=O)C3)cc1OC(F)F (stereo not drawn) [Compound 24] | < 30 nM | – | < 1100 nM | ≤ 30 nM
O=C1CCC(N2Cc3ccc(COC(=O)Nc4cc(OCCN5CCOCC5)cc(OC(F)(F)F)c4)cc3C2=O)C(=O)N1 (stereo not drawn) [Compound 106] | 30 to 300 nM | – | < 1100 nM | –
O=C1CCC(N2Cc3ccc(COC(=O)Nc4ccc5c(c4)CC(F)(F)O5)cc3C2=O)C(=O)N1 (stereo not drawn) [Compound 113] | 30 to 300 nM | < 500 nM | – | –
O=C1CCC(N2Cc3ccc(COC(=O)Nc4ccc(C5CCC5)nc4)cc3C2=O)C(=O)N1 (stereo not drawn) [Compound 105] | 30 to 300 nM | – | < 1100 nM | –
COc1cc(Cl)ccc1NC(=O)OCc1ccc2c(c1)C(=O)N(C1CCC(=O)NC1=O)C2 (stereo not drawn) [Compound 38] | > 300 nM | – | < 1100 nM | –
COc1cc(NC(=O)OCc2ccc3c(c2)C(=O)N(C2CCC(=O)NC2=O)C3)cnc1C (stereo not drawn) [Compound 51] | 30 to 300 nM | – | < 1100 nM | –
O=C1CCC(N2Cc3ccc(COC(=O)NCc4ccccc4)cc3C2=O)C(=O)N1 (stereo not drawn) [Compound 98] | > 300 nM | – | < 1100 nM | –
O=C1CCC(N2Cc3ccc(COC(=O)Nc4ccc(C5CC5)cc4)cc3C2=O)C(=O)N1 (stereo not drawn) [Compound 39] | < 30 nM | – | < 1100 nM | ≤ 30 nM
O=C1CCC(N2Cc3ccc(COC(=O)Nc4cc(CN5CC6CC5CO6)cc(OC(F)F)c4)cc3C2=O)C(=O)N1 (stereo not drawn) [Compound 100] | 30 to 300 nM | – | < 1100 nM | –
O=C1CCC(N2Cc3ccc(COC(=O)Nc4ccc(OC(F)(F)F)cc4F)cc3C2=O)C(=O)N1 (stereo not drawn) [Compound 148, (2-(2,6-dioxopiperidin-3-yl)-3-oxoisoindolin-5-yl)methyl(2-fluoro-4-(trifluoromethoxy)phenyl)carbamate] | > 300 nM | > 1700 nM | – | –
O=C1CCC(N2Cc3ccc(COC(=O)Nc4cc(-c5ccccc5)ccn4)cc3C2=O)C(=O)N1 (stereo not drawn) [Compound 155, (2-(2,6-dioxopiperidin-3-yl)-3-oxoisoindolin-5-yl)methyl (4-phenylpyridin-2-yl)carbamate] | 30 to 300 nM | > 1700 nM | – | –
CC1CCN(c2ccc(NC(=O)OCc3ccc4c(c3)C(=O)N(C3CCC(=O)NC3=O)C4)cn2)C1 (stereo not drawn) [Compound 69] | < 30 nM | < 500 nM | – | ≤ 30 nM
O=C1CCC(N2Cc3ccc(COC(=O)Nc4ccc(C5CC5(F)F)cc4)cc3C2=O)C(=O)N1 (stereo not drawn) [Compound 101] | 30 to 300 nM | > 1700 nM | – | –
CCc1cc(NC(=O)OCc2ccc3c(c2)C(=O)N(C2CCC(=O)NC2=O)C3)cnc1C (stereo not drawn) [Compound 55] | < 30 nM | – | < 1100 nM | ≤ 30 nM
O=C1CCC(N2Cc3ccc(COC(=O)Nc4ccc(-c5ccccc5)c(F)c4)cc3C2=O)C(=O)N1 (stereo not drawn) [Compound 136, (2-(2,6-dioxopiperidin-3-yl)-3-oxoisoindolin-5-yl)methyl (2-fluoro-[1,1′-biphenyl]-4-yl) carbamate] | 30 to 300 nM | > 1700 nM | – | –
Cc1cc(C)c(F)c(NC(=O)OCc2ccc3c(c2)C(=O)N(C2CCC(=O)NC2=O)C3)c1 (stereo not drawn) [Compound 122, (2-(2,6-dioxopiperidin-3-yl)-3-oxoisoindolin-5-yl)methyl (2-fluoro-3,5-dimethylphenyl)carbamate] | 30 to 300 nM | < 500 nM | – | –
Cc1ccc(NC(=O)OCc2ccc3c(c2)C(=O)N(C2CCC(=O)NC2=O)C3)cc1C (stereo not drawn) [Compound 129] | 30 to 300 nM | < 500 nM | – | –
O=C1CCC(N2Cc3ccc(COC(=O)Nc4ccc(N5CCC(F)(F)CC5)nc4)cc3C2=O)C(=O)N1 (stereo not drawn) [Compound 78] | 30 to 300 nM | < 500 nM | – | –
C[C@H]1CCCN1c1ccc(NC(=O)OCc2ccc3c(c2)C(=O)N(C2CCC(=O)NC2=O)C3)cn1 (stereo partly drawn) [Compound 156, (2-(2,6-dioxopiperidin-3-yl)-3-oxoisoindolin-5-yl)methyl (6-((S)-2-methylpyrrolidin-1-yl)pyridin-3-yl)carbamate] | < 30 nM | < 500 nM | – | ≤ 30 nM
O=C1CCC(N2Cc3ccc(COC(=O)Nc4ccc5c(c4)OCCC5)cc3C2=O)C(=O)N1 (stereo not drawn) [Compound 92] | < 30 nM | – | < 1100 nM | ≤ 30 nM

The next lines start with the values.

DC50 (GSPT1; [2]) | IC50 ([1]; read-out: rFP IC50) | IC50 ([1]; read-out: IC50 value) | DC50 (GSPT1; [3]) | Structure (SMILES)
> 300 nM | > 1700 nM | – | – | CC(OC(=O)Nc1cccc(OC(F)(F)F)c1)c1ccc2c(c1)C(=O)N(C1CCC(=O)NC1=O)C2 (stereo not drawn) [Compound 121, 1-(2-(2,6-dioxopiperidin-3-yl)-3-oxoisoindolin-5-yl)ethyl(3-(trifluoromethoxy)phenyl)carbamate]
30 to 300 nM | – | < 1100 nM | – | CC1(c2ccc(NC(=O)OCc3ccc4c(c3)C(=O)N(C3CCC(=O)NC3=O)C4)cc2)COC1 (stereo not drawn) [Compound 62]
> 300 nM | < 500 nM | – | – | O=C1CCC(N2Cc3ccc(COC(=O)Nc4ccc(N5CC6CCC(C5)O6)nc4)cc3C2=O)C(=O)N1 (stereo not drawn) [Compound 65]
30 to 300 nM | < 500 nM | – | – | O=C1CCC(N2Cc3ccc(COC(=O)Nc4cc(OC(F)(F)F)ccn4)cc3C2=O)C(=O)N1 (stereo not drawn) [Compound 59]
> 300 nM | < 500 nM | – | – | CN1CCN(c2ccc(NC(=O)OCc3ccc4c(c3)C(=O)N(C3CCC(=O)NC3=O)C4)cn2)CC1 (stereo not drawn) [Compound 82]
30 to 300 nM | < 500 nM | – | – | O=C1CCC(N2Cc3ccc(COC(=O)Nc4ccc(C5CC5)nc4)cc3C2=O)C(=O)N1 (stereo not drawn) [Compound 80]
< 30 nM | < 500 nM | – | ≤ 30 nM | C[C@@H]1CCCN1c1ccc(NC(=O)OCc2ccc3c(c2)C(=O)N(C2CCC(=O)NC2=O)C3)cn1 (stereo partly drawn) [Compound 157]
30 to 300 nM | < 500 nM | – | – | Cc1c(Cl)cc(NC(=O)OCc2ccc3c(c2)C(=O)N(C2CCC(=O)NC2=O)C3)cc1OCC1CCN(C)C1 (stereo not drawn) [Compound 70]
30 to 300 nM | > 1700 nM | – | – | O=C1CCC(N2Cc3ccc(COC(=O)Nc4cc(F)cc(OC(F)F)c4)cc3C2=O)C(=O)N1 (stereo not drawn) [Compound 31]
30 to 300 nM | < 500 nM | – | – | N#Cc1cc(Cl)cc(NC(=O)OCc2ccc3c(c2)C(=O)N(C2CCC(=O)NC2=O)C3)c1 (stereo not drawn) [Compound 111, (2-(2,6-dioxopiperidin-3-yl)-3-oxoisoindolin-5-yl)methyl (3-chloro-5-cyanophenyl)carbamate]
30 to 300 nM | < 500 nM | – | – | O=C1CCC(N2Cc3ccc(COC(=O)Nc4ccc(N5CCCC5)nc4)cc3C2=O)C(=O)N1 (stereo not drawn) [Compound 60]
30 to 300 nM | – | < 1100 nM | – | O=C1CCC(N2Cc3ccc(COC(=O)Nc4ccc5c(c4)CCCO5)cc3C2=O)C(=O)N1 (stereo not drawn) [Compound 67]
< 30 nM | – | < 1100 nM | ≤ 30 nM | Cc1c(Cl)cc(NC(=O)OCc2ccc3c(c2)C(=O)N(C2CCC(=O)NC2=O)C3)cc1CN1CCOCC1 (stereo not drawn) [Compound 2]
< 30 nM | < 500 nM | – | ≤ 30 nM | CC1(c2ccc(NC(=O)OCc3ccc4c(c3)C(=O)N(C3CCC(=O)NC3=O)C4)cn2)CC1 (stereo not drawn) [Compound 152, (2-(2,6-dioxopiperidin-3-yl)-3-oxoisoindolin-5-yl)methyl (6-(1-methylcyclopropyl)pyridin-3-yl)carbamate]
30 to 300 nM | – | < 1100 nM | – | O=C1CCC(N2Cc3ccc(COC(=O)Nc4cnc(N5CCCCC5)nc4)cc3C2=O)C(=O)N1 (stereo not drawn) [Compound 64]
< 30 nM | > 1700 nM | – | ≤ 30 nM | Cc1c(Cl)cc(NC(=O)OCc2ccc3c(c2)C(=O)N(C2CCC(=O)NC2=O)C3)cc1CN1CC2CCC(C1)O2 (stereo not drawn) [Compound 21]
> 300 nM | – | < 1100 nM | – | Cc1c(Cl)cc(NC(=O)OCc2ccc3c(c2)C(=O)N(C2CCC(=O)NC2=O)C3)cc1OCC1CCNC1 (stereo not drawn) [Compound 52]
< 30 nM | > 1700 nM | – | ≤ 30 nM | O=C1CCC(N2Cc3ccc(COC(=O)Nc4ccc(F)c(OC(F)(F)F)c4)cc3C2=O)C(=O)N1 (stereo not drawn) [Compound 61]
< 30 nM | < 500 nM | – | ≤ 30 nM | O=C1CCC(N2Cc3ccc(COC(=O)Nc4ccc(-c5ccccc5F)nc4)cc3C2=O)C(=O)N1 (stereo not drawn) [Compound 84]
> 300 nM | – | < 1100 nM | – | O=C1CCC(N2Cc3ccc(COC(=O)N4CCCC4)cc3C2=O)C(=O)N1 (stereo not drawn) [Compound 26]
30 to 300 nM | > 1700 nM | – | – | COc1cc(NC(=O)OCc2ccc3c(c2)C(=O)N(C2CCC(=O)NC2=O)C3)ccc1C (stereo not drawn) [Compound 37]
< 30 nM | – | < 1100 nM | ≤ 30 nM | Cc1c(F)cc(NC(=O)OCc2ccc3c(c2)C(=O)N(C2CCC(=O)NC2=O)C3)cc1CN1CCOCC1 (stereo not drawn) [Compound 41]
30 to 300 nM | > 1700 nM | – | – | CCc1cc(NC(=O)OCc2ccc3c(c2)C(=O)N(C2CCC(=O)NC2=O)C3)cc(Cl)c1C (stereo not drawn) [Compound 45]
< 30 nM | – | < 1100 nM | ≤ 30 nM | Cc1cc(NC(=O)OCc2ccc3c(c2)C(=O)N(C2CCC(=O)NC2=O)C3)cnc1-c1ccccc1 (stereo not drawn) [Compound 88]
30 to 300 nM | < 500 nM | – | – | O=C1CCC(N2Cc3ccc(COC(=O)Nc4ccc5c(c4)CCO5)cc3C2=O)C(=O)N1 (stereo not drawn) [Compound 66]
30 to 300 nM | < 500 nM | – | – | O=C1CCC(N2Cc3ccc(COC(=O)Nc4ccc(N5CCCCC5)nn4)cc3C2=O)C(=O)N1 (stereo not drawn) [Compound 75]
